In ChEMBL document CHEMBL3044557, “Phytotoxicity Caused by Peroxidizing Herbicides Is Alleviated by 2-Substituted 4, 6-Bis(ethylamino)-1, 3, 5-triazines” (J Pestic Sci, 1997):
Calls of active or inactive are those of the source. No cut-off for these calls is given here.

What was measured:
[1] = test system: Scenedesmus acutus; experiment: Protection against oxyfluorfen-induced phytotoxicity in Scenedesmus acutus in light condition assessed as reduction of protoporphyrin-9 accumulation per ml of packed cell volume after 2 hr; type: functional
[2] = test system: Scenedesmus acutus; experiment: Protection against oxyfluorfen-induced phytotoxicity in Scenedesmus acutus in light condition assessed as reduction of ethane formation per ml of packed cell volume after 16 hr (reference value: 11.82 nM); type: functional
[3] = test system: Scenedesmus acutus; experiment: Protection against oxyfluorfen-induced phytotoxicity in Scenedesmus acutus in light condition assessed as increase of chlorophyll content after 16 hr (reference value: 0.94 ug/ml); type: functional
[4] = test system: Scenedesmus acutus; experiment: Protection against chlorophthalim-induced phytotoxicity in Scenedesmus acutus in light condition assessed as reduction of ethane formation per ml of packed cell volume after 16 hr (reference value: 11.82 nM); type: functional
[5] = test system: Scenedesmus acutus; experiment: Protection against chlorophthalim-induced phytotoxicity in Scenedesmus acutus in light condition assessed as reduction of protoporphyrin-9 accumulation per ml of packed cell volume after 2 hr; type: functional
[6] = test system: Scenedesmus acutus; experiment: Protection against chlorophthalim-induced phytotoxicity in Scenedesmus acutus in light condition assessed as increase of chlorophyll content after 16 hr (reference value: 0.94 ug/ml); type: functional
[7] = test system: Scenedesmus acutus; experiment: Protection against chlorophthalim-induced phytotoxicity in Scenedesmus acutus in light condition assessed as cell density per micro liter of packed cell volume after 16 hr (reference value: 2.1 ml); type: functional; design: unit not given here
[8] = test system: Scenedesmus acutus; experiment: Phytotoxicity against Scenedesmus acutus in dark condition assessed as effect on protoporphyrin-9 accumulation per ml of packed cell volume at 10^-5 M after 16 hr; type: functional, organism-based
[9] = test system: Scenedesmus acutus; experiment: Protection against oxyfluorfen-induced phytotoxicity in Scenedesmus acutus in light condition assessed as cell density per micro liter of packed cell volume after 16 hr (reference value: 2.1 ml); type: functional; design: unit not given here
[10] = test system: Scenedesmus acutus; experiment: Phytotoxicity against Scenedesmus acutus in light condition assessed as effect on protoporphyrin-9 accumulation per ml of packed cell volume at 10^-5 M after 16 hr; type: functional, organism-based
[11] = test system: Scenedesmus acutus; experiment: Phytotoxicity against Scenedesmus acutus in light condition assessed as reduction of chlorophyll content after 16 hr (reference value: 20.25 ug/ml); type: functional
[12] = test system: Scenedesmus acutus; experiment: Phytotoxicity against Scenedesmus acutus in light condition assessed as cell density per micro liter of packed cell volume after 16 hr (reference value: 3.4 ml); type: functional; design: unit not given here

Structure (SMILES) | Activity [1] [nM] | Activity [2] [nM] | Activity [3] [µg/mL] | Activity [4] [nmol/mL] | Activity [5] [nmol/mL] | Activity [6] [µg/mL] | Activity [7] | Activity [8] | Activity [9] | Activity [10] | Activity [11] [µg/mL] | Activity [12]
CCOc1cc(Oc2ccc(C(F)(F)F)cc2Cl)ccc1[N+](=O)[O-] [OXYFLUORFEN] | 102.38 | 11.82 | 0.94 | – | – | – | – | – | – | – | – | –
CCNc1nc(NCC)nc(C(F)(F)F)n1 | 31.24 | 1.26 | 13.53 | 3.2 | 38.65 | 11.04 | 2.4 | inactive | 2.4 | inactive | 16.7 | 2.6
CCNc1nc(C)nc(NCC)n1 | 57.97 | 11.93 | 1.05 | 12.92 | 67.45 | 1.37 | 2.3 | inactive | 2.3 | inactive | 19.09 | 3
CCNc1nc(NCC)nc(C(Cl)(Cl)Cl)n1 | 37.08 | 1.63 | 13.31 | 3.63 | 27.65 | 10.48 | 2.4 | inactive | 2.2 | inactive | 19.23 | 2.6
CCNc1nc(Cl)nc(NCC)n1 [SIMAZINE] | 52.7 | 2.82 | 13.05 | 4.24 | 19.15 | 10.52 | – | inactive | – | inactive | 16.86 | –
CCNc1nc(NCC)nc(SC)n1 [SIMETRYN] | 30.67 | 0.4 | 14.46 | 1.7 | 31.92 | 10.52 | – | inactive | – | inactive | 17.74 | –
CCNc1nc(NCC)nc(-c2ccccc2)n1 | 69.9 | 11.93 | 0.67 | 13.64 | 133.96 | 0.46 | 2.3 | inactive | 2.2 | inactive | 19.08 | 3.2
CN(C)C(=O)Nc1ccc(Cl)c(Cl)c1 [DCMU] | 29.12 | – | 14.57 | 0.41 | 18.86 | 11.56 | – | – | – | – | 17.66 | –
O=C1C2=C(CCCC2)C(=O)N1c1ccc(Cl)cc1 [CHLOROPHTHALIUM] | – | – | – | 12.73 | 128.65 | 0.99 | 2.3 | – | – | – | – | –
